Data taken from patent US9572828B2, “Treatment for melanoma” (The Board of Regents of the University of Texas System, priority 2013, dated 2017).

How the values were obtained:
[1] = human, in vivo; cited from earlier work
[2] = human, in vivo; cited from earlier work; remark: listed apart in the source
[3] = 4 hours after 0.5 mg/kg injection (FIG. 1C)
[4] = tested on: primary melanomas from patients; assay: xenograft assay, digitoxin and/or GSK1120212; format: in vivo, NSG mice; details: 0.5 mg/kg/day each agent by oral gavage; melanomas from multiple patients, with and without BRAF mutations
Description: Melanoma cells were injected subcutaneously in the right flanks of immunocompromised NSG mice. When tumors became palpable, mice were randomized to four different treatments. […] Control mice received vehicle only (200 μl 0.5% promethylcellulose, 0.2% Tween80 and 5% DMSO per day). Tumors were measured every 2-3 days with calipers.
In these experiments, metastatic melanoma cells were injected subcutaneously in the right flanks of immunocompromised NSG mice. When tumors became palpable, mice were randomized to four different treatments. […] Control mice received vehicle only (200 μl 0.5% promethylcellulose, 0.2% Tween80 and 5% DMSO per day). Tumors were measured every 2-3 days with calipers and bioluminescence imaging was performed when the diameter of the tumors in vehicle treated mice reached 2 cm.

[5] = tested on: BRAFV600E/K mutant advanced or malignant melanoma; details: cited from earlier work

C[C@H]1O[C@@H](O[C@H]2[C@@H](O)C[C@H](O[C@H]3[C@@H](O)C[C@H](O[C@H]4CC[C@@]5(C)[C@H](CC[C@@H]6[C@@H]5C[C@@H](O)[C@]5(C)[C@@H](C7=CC(=O)OC7)CC[C@]65O)C4)O[C@@H]3C)O[C@@H]2C)C[C@H](O)[C@@H]1O [digoxin]
frequency of common adverse effects (loss of appetite, nausea, vomiting, diarrhea etc.) [1]: ≥ 1 % of patients | plasma concentration at which adverse effects are rare [1]: < 0.8 ng/mL | half-life [2]: about 36 hours

C[C@H]1O[C@@H](O[C@H]2[C@@H](O)C[C@H](O[C@H]3[C@@H](O)C[C@H](O[C@H]4CC[C@@]5(C)[C@H](CC[C@@H]6[C@@H]5CC[C@]5(C)[C@@H](C7=CC(=O)OC7)CC[C@]65O)C4)O[C@@H]3C)O[C@@H]2C)C[C@H](O)[C@@H]1O [digitoxin]
doses in the plasma of mice [3]: fell within the therapeutic range in humans | growth of human melanoma xenografts [4]: slowed the growth

CC(=O)Nc1cccc(-n2c(=O)n(C3CC3)c(=O)c3c(Nc4ccc(I)cc4F)n(C)c(=O)c(C)c32)c1 [Trametinib]
chorioretinopathy ([5]; MEKi class effect): < 1% | decreased ejection fraction ([5]; MEKi class effect): 7% | Grade 3 hypertension ([5]; Trametinib arm): 12% | Grade 3 rash ([5]; Trametinib arm): 7%
